Measurements reported in publication PMC11200585, “Prospects for Prostate Cancer Chemotherapy: Cytotoxic Evaluation and Mechanistic Insights of Quinolinequinones with ADME/PK Profile” (Biomedicines, 2024).

Tests used:
Type in all cases: cell-based, human
[1] = tested on: CCRF-CEM; test: NCI-60 five-dose assay (leukemia); details: Homo sapiens, 48 h, SRB
[2] = tested on: LOX IMVI; test: NCI-60 five-dose assay (melanoma); details: 48 h, SRB
[3] = tested on: SR; test: NCI-60 five-dose assay (leukemia); details: 48 h, SRB
[4] = tested on: COLO 205; test: NCI-60 five-dose assay (colon cancer); details: 48 h, SRB
[5] = tested on: NCI-H460; test: NCI-60 five-dose assay (non-small cell lung cancer); details: 48 h, SRB
[6] = tested on: MDA-MB-231/ATCC; test: NCI-60 five-dose assay (breast cancer); details: 48 h, SRB
[7] = tested on: HCC-2998; test: NCI-60 five-dose assay (colon cancer); details: 48 h, SRB
[8] = tested on: SN12C; test: NCI-60 five-dose assay (renal cancer); details: 48 h, SRB
[9] = tested on: RXF 393; test: NCI-60 five-dose assay (renal cancer); details: 48 h, SRB
[10] = tested on: HS 578T; test: NCI-60 five-dose assay (breast cancer); details: 48 h, SRB
[11] = tested on: T-47D; test: NCI-60 one-dose screen (breast cancer); details: 10 µM single dose, 48 h
Method: (§1) The obtained quinolinequinones were submitted to NCI, Bethesda, USA, and, as per standard protocol of NCI, all compounds were evaluated for their antiproliferative activity at single-dose assay (10 µM concentration in DMSO) on a panel of 60 cancer cell lines derived from leukemia, non-small-cell lung, colon, CNS, melanoma, ovarian, renal, prostate, and breast, as per protocol. Tested compounds were added to the microtiter culture plates followed by incubation for 48 h at 37 °C. Sulforhodamine B (SRB), a protein-binding dye, is used for endpoint determination. The percent of the growth of the treated cells was determined in comparison to the untreated control cells and the results of each tested compound were reported. Data from one-dose experiments pertain to the percentage growth at 10 μM [16, 17, 18].

[12] = tested on: MDA-MB-468; test: NCI-60 one-dose screen (breast cancer); details: 10 µM single dose, 48 h
Method: as §1

[13] = tested on: BT-549; test: NCI-60 one-dose screen (breast cancer); details: 10 µM single dose, 48 h
Method: as §1

[14] = tested on: MCF7; test: NCI-60 five-dose assay (breast cancer); details: 48 h, SRB
[15] = tested on: IGROV1; test: NCI-60 five-dose assay (ovarian cancer); details: SRB
[16] = tested on: SW-620; test: NCI-60 five-dose assay (colon cancer); details: 48 h, SRB
[17] = tested on: NCI/ADR-RES; test: NCI-60 five-dose assay (ovarian cancer); details: 48 h, SRB
[18] = tested on: A498; test: NCI-60 five-dose assay (renal cancer); details: 48 h, SRB
[19] = tested on: OVCAR-4; test: NCI-60 five-dose assay (ovarian cancer); details: 48 h, SRB
[20] = tested on: KM12; test: NCI-60 five-dose assay (colon cancer); details: 48 h, SRB
[21] = tested on: SNB-75; test: NCI-60 five-dose assay (CNS cancer); details: 48 h, SRB
[22] = tested on: SK-MEL-28; test: NCI-60 five-dose assay (melanoma); details: 48 h, SRB
[23] = tested on: A549/ATCC; test: NCI-60 five-dose assay (non-small cell lung cancer); details: 48 h, SRB
[24] = tested on: HOP-62; test: as above; details: 48 h, SRB
[25] = tested on: MDA-MB-435; test: NCI-60 one-dose screen (melanoma); details: 10 µM single dose, 48 h
Method: as §1

[26] = tested on: SK-MEL-28; test: NCI-60 one-dose screen (melanoma); details: 10 µM single dose, 48 h
Method: as §1

[27] = tested on: SK-MEL-2; test: NCI-60 one-dose screen (melanoma); details: 10 µM single dose
Method: as §1

[28] = tested on: LOX IMVI; test: NCI-60 one-dose screen (melanoma); details: 10 µM single dose, 48 h
Method: as §1

[29] = tested on: UACC-257; test: NCI-60 one-dose screen (melanoma); details: 10 µM single dose, 48 h
Method: as §1

[30] = tested on: MALME-3M; test: NCI-60 one-dose screen (melanoma); details: 10 µM single dose, 48 h
Method: as §1

[31] = tested on: UACC-62; test: NCI-60 one-dose screen (melanoma); details: 10 µM single dose, 48 h
Method: as §1

[32] = tested on: SK-MEL-5; test: NCI-60 one-dose screen (melanoma); details: 10 µM single dose, 48 h
Method: as §1

[33] = tested on: OVCAR-8; test: NCI-60 five-dose assay (ovarian cancer); details: 48 h, SRB
[34] = tested on: SK-OV-3; test: NCI-60 five-dose assay (ovarian cancer); details: 48 h, SRB
[35] = tested on: TK-10; test: NCI-60 five-dose assay (renal cancer); details: 48 h, SRB
[36] = Homo sapiens, read-out: LC50 (the source's name)

## COc1cc(NC2=C(Cl)C(=O)c3nc(C)ccc3C2=O)cc(OC)c1 [AQQ5]
[1]
  GI50: 2230 nM
  LC50 (concentration killing 50% of cells): > 100 µM
[2]
  TGI: 2.32 µM
[2]; Homo sapiens
  GI50: 1100 nM
  LC50 (concentration killing 50% of cells): 4.88 µM
[3]
  TGI: 2.43 µM
[3]; Homo sapiens
  GI50: 350 nM
[3]; [36]
  CC50: > 100 µM
[4]
  TGI: 3.08 µM
[4]; Homo sapiens
  GI50: 1680 nM
[4]; [36]
  CC50: 5.63 µM
[5]
  TGI: 8.07 µM
[5]; Homo sapiens
  GI50: 2680 nM
[5]; [36]
  CC50: 82.6 µM
[6]
  TGI: 3.08 µM
[6]; Homo sapiens
  GI50: 1460 nM
  LC50 (concentration killing 50% of cells): 6.48 µM
[7]
  TGI: 3.26 µM
[7]; Homo sapiens
  GI50: 1810 nM
  LC50 (concentration killing 50% of cells): 5.88 µM
[8]
  TGI: 3.25 µM
[8]; Homo sapiens
  GI50: 1710 nM
  LC50 (concentration killing 50% of starting cells): 6.19 µM
[9]
  TGI: 2.99 µM
[9]; Homo sapiens
  GI50: 1630 nM
  LC50: 5.48 µM
[10]
  TGI: 5.78 µM
[10]; Homo sapiens
  GI50: 2430 nM
[10]; [36]
  CC50: > 100 µM
[11]
  GP (growth percentage): −56.01%
[12]
  GP (growth percentage): −78.49%
[13]
  GP (growth percentage): 24.11%
[14]
  TGI: 5.33 µM
[14]; Homo sapiens
  GI50: 1820 nM
  LC50: > 100 µM
[15]; 48 h
  TGI: 3.55 µM
[15]; Homo sapiens, IGROV-1, 48 h
  GI50: 1730 nM
  LC50: 7.26 µM
[16]
  TGI: 3.47 µM
[16]; Homo sapiens
  GI50: 1760 nM
  LC50: 6.85 µM
[17]
  TGI: 4.47 µM
[17]; Homo sapiens
  GI50: 1810 nM
[17]; [36]
  CC50: 21.7 µM
[18]
  TGI: 11.4 µM
[18]; Homo sapiens
  GI50: 2350 nM
  LC50: 33.8 µM
[19]
  TGI: 2.82 µM
[19]; Homo sapiens
  GI50: 1400 nM
  LC50 (concentration killing 50% of cells): 5.66 µM
[20]
  TGI: 26.6 µM
[20]; Homo sapiens
  GI50: 13 µM
[20]; [36]
  CC50: 54.7 µM
[21]
  TGI: 5.37 µM
[21]; Homo sapiens
  GI50: 1940 nM
  LC50 (50% lethal concentration): 23.2 µM
[22]
  TGI: 3.23 µM
[22]; Homo sapiens
  GI50: 1790 nM
  LC50: 5.85 µM
[23]
  TGI: 8.97 µM
[23]; Homo sapiens
  GI50: 2830 nM
[23]; [36]
  CC50: 38.8 µM
[24]
  TGI: 14.1 µM
[24]; Homo sapiens
  GI50: 4.26 µM
  LC50 (concentration killing 50% of cells): 37.7 µM
[25]
  GP (growth percentage): −87.43%
[26]
  GP (growth percentage): −73.06%
[27]; 48 h
  GP (growth percentage): 5.03%
[27]; Homo sapiens
  inhibition at 10 µM: 95%
[28]
  GP (growth percentage): −82.62%
[29]
  GP (growth percentage): −92.05%
[30]
  GP (growth percentage): −89.37%
[31]
  GP (growth percentage): −43.56%
[32]
  GP (growth percentage): −74.93%
[33]
  TGI: 3.28 µM
[33]; Homo sapiens
  GI50: 1640 nM
[33]; [36]
  CC50: 6.56 µM
[34]
  TGI: 25.1 µM
[34]; Homo sapiens
  GI50: 12.6 µM
  LC50 (50% net cell kill): 50.1 µM
[35]
  TGI: 3.78 µM
[35]; Homo sapiens
  GI50: 2320 nM
  LC50 (concentration killing 50% of starting cells): 6.15 µM
